The bioavailability is the share of a dose that reaches the circulation, judged against a reference dose that is usually intravenous. The CL/F is clearance divided by bioavailability, as obtained after extravascular dosing.

Each structure is given as a SMILES string. “Also recorded” adds a separate entry of the source. Where two headings read alike, the source gives them in different places.

Data on three compounds can be found in PMC8964335 (Drug Design, Development and Therapy, 2022).

For data set [1] the following is noted: no reference given; cited from earlier work.
The nature of data set [2]: Ruxolitinib pharmacokinetics without and with co-administered voriconazole. It is filed as in vivo, human.
Data set [3] concerns patients with hematological malignancies. The data set is described as follows: Adverse effects during the DDI study. It is filed as in vivo, human.
Data set [4] has as its system SR-aGVHD patients. To be noted: 10 mg ruxolitinib twice daily, cited from earlier work.
The conditions of data set [5]: human; cited from earlier work.
The conditions of data set [6]: coadministered with fluconazole vs ruxolitinib alone; cited from earlier work.
Data set [7] deals with patients receiving ruxolitinib. The note with it: patients receiving ruxolitinib vs control regimen; cited from earlier work.
For data set [8], the system named is CYP3A4. To be noted: cited from earlier work.
The test system of data set [9] is CYP2C9. The note with it: cited from earlier work.
In data set [10] the test system is patients undergoing HSCT. To be noted: initial dose 5 mg twice daily; cited from earlier work.
Data set [11] relates to healthy people. To be noted: cited from earlier work.
The conditions of data set [12]: 10 mg once daily for 10 days; cited from earlier work.
The conditions of data set [13]: presence vs absence of food; cited from earlier work.
The nature of data set [14]: Voriconazole steady-state check from two adjacent trough concentrations. The note with it: first four patients, day 4, 200 mg per 12 h without loading dose. It is filed as in vivo, human.
The subject of data set [15] is breast cancer resistance protein (BCRP). The note with it: cited from earlier work.
[16] abbreviates: after pre-treatment with voriconazole vs ruxolitinib alone.
Setting [17] is: ruxolitinib 5 mg co-administered with voriconazole.
Where [18] appears, read: with voriconazole vs ruxolitinib alone.

For `CC[C@@H]([C@H](C)O)n1ncn(-c2ccc(N3CCN(c4ccc(OC[C@@H]5CO[C@@](Cn6cncn6)(c6ccc(F)cc6F)C5)cc4)CC3)cc2)c1=O` [posaconazole], the bioavailability in data set [1] is listed as 83%.
`N#CC[C@H](C1CCCC1)n1cc(-c2ncnc3[nH]ccc23)cn1` [ruxolitinib]: in data set [2] (setting [16]), the “AUCinf increased by” value is 118.3%, the “AUClast increased by” value is given as 110.1%, the “Cmax increased by” value is 50.4% and the “T1/2 increased by” value is 81.3%. Further, the “change in Tmax” value in data set [2] (setting [16]) was “no significant change”. Besides, in data set [2] (setting [17]), the “CL/F % of ruxolitinib alone” value is recorded as 43.6% and the “Cmax % of ruxolitinib alone” value was found to be 150.4%. Moreover, the CL/F in data set [2] (ruxolitinib 5 mg single oral dose alone, 12 patients, mean ± SD) worked out at 22.5 ± 6.4 L/h. Moreover, in data set [2] (setting [18]), the “AUClast increased to” value was “approximately 2.1 fold” and the “T1/2 prolonged to” value stood at 1.81 fold. For the same compound, the “AUCinf increased to (range over patients)” value in data set [2] (with voriconazole vs ruxolitinib alone, range) is given as 1.44–3.35 fold. Further, in data set [3] (two single doses of 5 mg ruxolitinib), the adverse effects entry was “No observed adverse effects; also recorded: No adverse effect”. Also, in data set [4] (SR-aGVHD), the “overall response on day 28” value is reported as 62%. In [4], the “anemia, severe (grade ≥ 3) adverse event” value is 22%; the “neutropenia, severe (grade ≥ 3) adverse event” value is 13%; the “thrombocytopenia, severe (grade ≥ 3) adverse event” value is recorded as 27%. For the same compound, in data set [5], the “unchanged parent molecules in urine and feces” value is “less than 1%”. For the same compound, in data set [6], the “AUCinf increased by” value is 232%, the “AUClast increased by” value is listed as 234% and the “Cmax increased by” value was 47%. In addition, the fungal infection in data set [7] is reported as 11.5%. Further, in data set [8], the “share of metabolism by CYP3A4” value is on record as 76%. In data set [9], the “share of metabolism by CYP2C9” value was 19%. In [10], the “patients developing severe cytopenia” value is reported as 60% and the patients responding was 75%. Further, the “maximum tolerated dose (MTD)” value in [11] (once daily) is listed as 100 mg. The “maximum tolerated dose (MTD)” value in data set [11] (twice daily) is on record as 25 mg. In data set [12], the “accumulation on repeated dosing” value is listed as “no cumulative effect”. Also, in data set [13], the “AUCinf decreased by food” value was 6% and the “Cmax decreased by food” value is listed as 24.3%.
As for `C[C@@H](c1ncncc1F)[C@](O)(Cn1cncn1)c1ccc(F)cc1F` [voriconazole], the adverse effects entry in data set [3] (voriconazole 200 mg per 12 h without loading dose, first four patients) is recorded as “no adverse effects were observed”. Besides, in data set [14], the “difference between two trough concentrations (C12-C0)/C12×100%” value was “less than 15%”. Also, in data set [15], the “inhibition of BCRP” value is “does not inhibit”. Also, the bioavailability in data set [1] is given as 96%.
